Test results taken from paper PMC3514116 (BMC Plant Biology, 2012).
Marks after values point to notes of the source that are not given here. Ends that are not written are not given here.

Key:
[1] = tested on: Erwinia amylovora PMV6076 (Ea); assay: In vitro growth inhibition (MIC), Erwinia amylovora; settings: 10^8 bacterial CFU/ml suspension in TSB, microtiter plate, 25°C 48 h, OD 600 nm; three replicates, two experimental replicates; MIC = lowest concentration with no growth
Procedure: (§1) Peptides were solubilized in sterile Milli-Q H2O to a concentration of 1 mM and filter sterilized through a 0.22 μm pore filter. […] Bacterial strains were stored at −80°C in Luria Bertani (LB) broth with glycerol (20%). After 24 h (Ea, Pss and Dc) or 48 h (Xav) growth in LB agar at 25°C, bacterial colonies were scraped off the surface, suspended in sterile H2O and adjusted to 10^8 CFU/ml. The fungal strain was stored at 4°C in the particulate solid carrier perlite, on fresh potato dextrose agar (PDA). Fv cultures were prepared in potato dextrose broth (PDB) and incubated for one week at 25°C in the dark in a rotary shaker at 125 rpm. They were filtered through several layers of sterile cheesecloth to eliminate macroconidia and mycelial growth. The effluent was centrifuged at 8,000 rpm for 20 min at 4°C and the pellet was suspended in sterile water. Microconidia concentration was determined in a counting chamber.
(§2) Serial dilutions of synthetic peptides were prepared at 400, 200, 100, 50, 25, 12.5 and 6 μM. […] Microplates were incubated at 25°C for 48 h (bacterial strains) or 22°C for 6 days (Fv), and optical densities at 600 nm were recorded hourly (every two hours for Fv) after 20 s shaking. […]

[2] = tested on: tobacco leaves; assay: Phytotoxicity, tobacco leaf inoculation assay; assay type: in vivo, Nicotiana benthamiana; settings: for Phytotoxicity at 150 μM (inoculation): lesion diameter: 100 μl of 150 μM peptide inoculated into tobacco leaf mesophyll, three days, mean and standard error, at least three inoculations
Procedure: Tobacco (Nicotiana benthamiana) plants were grown from seed in a heated glasshouse and used between 20 and 30 days old. One hundredμl chemically synthesized peptides at 50, 100, 150 or 250 μM were inoculated into the mesophylls of fully expanded tobacco leaves (previously wounded with a needle), using a syringe without needle, and plants were kept at standard glasshouse conditions for three days. Up to six independent inoculations were carried out in a single leaf, and at least three independent inoculations were performed per peptide and concentration, randomly distributed in different leaves and plants. Toxicity was measured as the lesion diameter.

[3] = tested on: Pseudomonas syringae pv. syringae EPS94 (Pss); assay: In vitro growth inhibition (MIC), Pseudomonas syringae pv. syringae; settings: 10^8 bacterial CFU/ml suspension in TSB, microtiter plate, 25°C 48 h, OD 600 nm; three replicates, two experimental replicates
Procedure: as §1, §2

[4] = tested on: erythrocyte suspensions of fresh human blood; assay: Hemolytic activity (hemoglobin release); assay type: cell-based; settings: human erythrocytes 5% v/v, TRIS/NaCl pH 7.2, 150 μM peptide, 1 h 37°C, A540
Procedure: Hemoglobin release from erythrocyte suspensions of fresh human blood (5% v/v) was used to evaluate hemolytic activity of synthetic peptides. Briefly, aseptically collected blood (BD vacutainer K2E System with EDTA, Belliver Industrial State, Plymouth, UK) was centrifuged at 6,000 g for 5 min, washed with 10 mM TRIS, 150 mM NaCl, pH 7.2 and suspended in the same buffer. Fifty μl of peptide solutions at 300 μM were mixed with 50 μl aliquots of erythrocyte suspensions and incubated for 1h at 37 °C with shaking. After centrifugation, the supernatants were transferred to microplate wells with 80 μl H2O and the 540 nm absorbance was monitored with a Bioscreen plate reader. Hemolysis percentages were calculated relative to mellitin and TRIS buffer.

[5] = tested on: rice Senia seeds; assay: Phytotoxicity, rice germination assay; assay type: in vivo, Oryza sativa L.; settings: for Phytotoxicity (germination): minimal peptide concentration causing significant alteration of shoot length: 12 Senia seeds per treatment germinated 7 days in 0, 8, 16, 32, 64 μM peptide, 28°C, one-way ANOVA; for Effect on rice seedling development at high concentrations: germination test, Senia seeds, 7 days, 125 and 250 μM also tested
Procedure: For each treatment, a total of 12 surface-sterilized Senia seeds were germinated in 500 μl water or peptide solution at the appropriate concentration (0, 8, 16, 32 and 64 μM) in a culture chamber (28 ± 1°C with a photoperiod of 16 h light / 8 h dark under fluorescent Sylvania Cool White lamps) for seven days. Seedling morphology was recorded and shoot length was measured.

[6] = tested on: Xanthomonas axonopodis pv. vesicatoria 2133-2 (Xav); assay: In vitro growth inhibition (MIC), Xanthomonas axonopodis pv. vesicatoria; settings: 10^8 bacterial CFU/ml suspension in TSB, microtiter plate, 25°C 48 h, OD 600 nm; three replicates, two experimental replicates
Procedure: as §1, §2

[7] = tested on: Dickeya chrysanthemi 1552-10-1 (Dc); assay: In vitro growth inhibition (MIC), Dickeya chrysanthemi; settings: 10^8 bacterial CFU/ml suspension in TSB, microtiter plate, 25°C 48 h, OD 600 nm; three replicates, two experimental replicates
Procedure: as §1, §2

[8] = tested on: mice; settings: cited from earlier work
[9] = tested on: erythrocyte suspensions of fresh human blood; settings: human erythrocytes 5% v/v, TRIS/NaCl pH 7.2, 1 h 37°C, A540, relative to mellitin; confidence interval for α = 0.05; cited from earlier work

Molecule: CC[C@H](C)[C@H](NC(=O)[C@H](CCCCN)NC(=O)[C@H](CCCCN)NC(=O)[C@H](Cc1ccccc1)NC(=O)[C@H](CC(C)C)NC(=O)[C@H](CCCCN)NC(=O)[C@@H](N)CCCCN)C(=O)N[C@@H](CC(C)C)C(=O)N[C@@H](CCCCN)C(=O)N[C@@H](Cc1ccc(O)cc1)C(=O)N[C@@H](CC(C)C)C(=O)O [unmodified BP100]
- Antimicrobial activity Ea, minimal inhibitory concentration (MIC) [1]: 5.0 to 10 µM
- Phytotoxicity at 150 μM (inoculation): lesion diameter [2]: 0.80 ± 0.02^a cm
- Antimicrobial activity Pss, minimal inhibitory concentration (MIC) [3]: 5.0 to 10 µM
- Hemolytic activity at 150 μM, ratio between each peptide and the reference peptide BP100 [4]: 1
- Phytotoxicity (germination): minimal peptide concentration causing significant alteration of shoot length [5]: 64 µM
- Antimicrobial activity Xav, minimal inhibitory concentration (MIC) [6]: 10 to 20 µM
- Antimicrobial activity Dc, minimal inhibitory concentration (MIC) [7]: 10 to 20 µM

Molecule: CC[C@H](C)[C@H](NC(=O)[C@H](CC(C)C)NC(=O)[C@H](CCCCN)NC(=O)[C@H](Cc1ccc(O)cc1)NC(=O)[C@H](CC(C)C)NC(=O)[C@H](C)NC(=O)[C@@H]1CCCN1C(=O)CNC(=O)[C@H](C)NC(=O)[C@H](CC(C)C)NC(=O)[C@H](Cc1ccc(O)cc1)NC(=O)[C@H](CCCCN)NC(=O)[C@H](CC(C)C)NC(=O)[C@@H](NC(=O)[C@H](CCCCN)NC(=O)[C@H](CCCCN)NC(=O)[C@H](Cc1ccccc1)NC(=O)[C@H](CC(C)C)NC(=O)[C@H](CCCCN)NC(=O)[C@@H](N)CCCCN)[C@@H](C)CC)C(=O)N[C@@H](CCCCN)C(=O)N[C@@H](CCCCN)C(=O)N[C@@H](Cc1ccccc1)C(=O)N[C@@H](CC(C)C)C(=O)N[C@@H](CCCCN)C(=O)N[C@@H](CCCCN)C(=O)N[C@@H](CCCCN)C(=O)N[C@@H](CC(=O)O)C(=O)N[C@@H](CCC(=O)O)C(=O)N[C@@H](CC(C)C)C(N)=O [BP100.2i]
- Phytotoxicity at 150 μM (inoculation): lesion diameter [2]: 1.32 ± 0.06^b cm
- Hemolytic activity at 150 μM, ratio between each peptide and the reference peptide BP100 [4]: 4
- Phytotoxicity (germination): minimal peptide concentration causing significant alteration of shoot length [5]: 16 µM

Molecule: KKLFKKILKYLTTGLPALISAGPASILAPLGTTLYKLIKKFLKKKDEL-NH2 (C-terminus assumed) [BP100.2mi]
- Phytotoxicity at 150 μM (inoculation): lesion diameter [2]: 1.46 ± 0.12^b cm
- Hemolytic activity at 150 μM, ratio between each peptide and the reference peptide BP100 [4]: 5
- Phytotoxicity (germination): minimal peptide concentration causing significant alteration of shoot length [5]: 16 µM

Molecule: mellitin: highly cytotoxic, potent hemolytic natural AMP, 26 amino acids, positive control [reference compound]
- Lesions in tobacco leaves compared with BP100 and BP100 derivatives ([2]; inoculation of 50 to 250 μM, same doses, positive control): more severe lesions
- Effect on rice seedling development at high concentrations [5]: predominantly inhibited root growth while allowing moderate shoot development

Molecule: KKLFKKILKYLAGPAKKLFKKILKYLKDEL-NH2 (C-terminus assumed) [BP100.2]
- Phytotoxicity at 150 μM (inoculation): lesion diameter [2]: 1.15 cm
- Hemolytic activity at 150 μM, ratio between each peptide and the reference peptide BP100 [4]: 3
- Phytotoxicity (germination): minimal peptide concentration causing significant alteration of shoot length [5]: 32 µM

Molecule: CC[C@H](C)[C@H](NC(=O)[C@H](CCCCN)NC(=O)[C@H](CCCCN)NC(=O)[C@H](Cc1ccccc1)NC(=O)[C@H](CC(C)C)NC(=O)[C@H](CCCCN)NC(=O)[C@@H](N)CCCCN)C(=O)N[C@@H](CC(C)C)C(=O)N[C@@H](CCCCN)C(=O)N[C@@H](Cc1ccc(O)cc1)C(=O)N[C@@H](CC(C)C)C(=O)N[C@@H](CCCCN)C(=O)N[C@@H](CC(=O)O)C(=O)N[C@@H](CCC(=O)O)C(=O)N[C@@H](CC(C)C)C(N)=O [BP100.1]
- Phytotoxicity at 150 μM (inoculation): lesion diameter [2]: 1.17 cm
- Hemolytic activity at 150 μM, ratio between each peptide and the reference peptide BP100 [4]: <1
- Phytotoxicity (germination): minimal peptide concentration causing significant alteration of shoot length [5]: 64 µM

Molecule: KKLFKKILKYLAGPAKKLFKKILKYLAGPAKKLFKKILKYLKDEL-NH2 (C-terminus assumed) [BP100.3]
- Phytotoxicity at 150 μM (inoculation): lesion diameter [2]: 1.38 ± 0.04^b cm
- Hemolytic activity at 150 μM, ratio between each peptide and the reference peptide BP100 [4]: 4
- Phytotoxicity (germination): minimal peptide concentration causing significant alteration of shoot length [5]: 16 µM

Molecule: CC[C@H](C)[C@H](NC(=O)[C@H](CCCCN)NC(=O)[C@H](CCCCN)NC(=O)[C@H](Cc1ccccc1)NC(=O)[C@H](CC(C)C)NC(=O)[C@H](CCCCN)NC(=O)[C@@H](N)CCCCN)C(=O)N[C@@H](CC(C)C)C(=O)N[C@@H](CCCCN)C(=O)N[C@@H](Cc1ccc(O)cc1)C(=O)N[C@@H](CC(C)C)C(N)=O [BP100]
- Biocompatibility in acute oral toxicity tests [8]: highly biocompatible
- Hemolytic activity at 150 μM [9]: 22.0 ± 2.8%
- Phytotoxicity at 150 μM (inoculation): lesion diameter [2]: 0.90 ± 0.05^a cm
- Phytotoxicity (germination): minimal peptide concentration causing significant alteration of shoot length [5]: 64 µM
- Effect on rice seedling development at high concentrations [5]: barely effected root growth but almost completely inhibited shoot development
- Antimicrobial activity Xav, minimal inhibitory concentration (MIC) [6]: 5.0 to 10 µM
- Antimicrobial activity Dc, minimal inhibitory concentration (MIC) [7]: 5 to 10 µM
